# Experimental data taken from US5972953A, “Brain cell protective agent” (priority 1993, dated 1999).
# Tested on: cultured nerve cells (cerebral cortex)
# Test: cells
# Assay type: cell-based, Wistar rat
# Settings: Rattus norvegicus, Cerebral cortex neuron, 24 h, read-out: ED50
row,Structure (SMILES),EC50 [nM]
1,"Cc1cccc(/C=C/C(=O)N(CC(C)C)[C@@H]2CC[C@@]3(O)[C@H]4Cc5ccc(O)c6c5[C@@]3(CCN4CC3CC3)[C@H]2O6)c1 [Compound 57, 17-cyclopropylmethyl-3,14β-dihydroxy-4,5α-epoxy-6β-(N-isobutyl-3-methylcinnamamido)morphinan]",660

# Same assay, conditions: Rattus norvegicus, Cerebral cortex neuron; 10 mM glutamate, 24 hours at 37° C., LDH leakage; read-out: ED50 (the source's name)
row,Structure (SMILES),EC50 [nM]
1,"CN(C(=O)/C=C/c1ccoc1)[C@@H]1CC[C@@]2(O)[C@H]3Cc4ccc(O)c5c4[C@@]2(CCN3CC2CC2)[C@H]1O5 (relative stereo) [Compound 43, 17-cyclopropylmethyl-3,14β-dihydroxy-4,5α-epoxy-6β-[N-methyl-trans-3-(3-furyl)acrylamido]morphinan]",32600
2,"CN(C(=O)/C=C/c1ccco1)[C@@H]1CC[C@@]2(O)[C@H]3Cc4ccc(O)c5c4[C@@]2(CCN3CC2CC2)[C@H]1O5 (relative stereo) [Compound 53, 17-cyclopropylmethyl-3,14β-dihydroxy-4,5α-epoxy-6β-[N-methyl-trans-3-(2-furyl)acrylamido]morphinan]",18200
3,"CN(C(=O)/C=C/c1ccsc1)[C@@H]1CC[C@@]2(O)[C@H]3Cc4ccc(O)c5c4[C@@]2(CCN3CC2CC2)[C@H]1O5 (relative stereo) [Compound 54, 17-cyclopropylmethyl-3,14β-dihydroxy-4,5α-epoxy-6β-[N-methyl-trans-3-(3-thienyl)acrylamido]morphinan]",13500
4,"O=C(/C=C/c1ccoc1)S[C@@H]1CC[C@@]2(O)[C@H]3Cc4ccc(O)c5c4[C@@]2(CCN3CC2CC2)[C@H]1O5 (relative stereo) [Compound 119, 17-cyclopropylmethyl-4,5α-epoxy-3,14β-dihydroxy-6β-[trans-3-(3-furyl)acryloylthio]morphinan]",1470
5,"CCN(Cc1ccccc1)[C@@H]1CC[C@@]2(O)[C@H]3Cc4ccc(O)c5c4[C@@]2(CCN3CC2CC2)[C@H]1O5 [Compound 5, 17-cyclopropylmethyl-3,14β-dihydroxy-4,5α-epoxy-6β-(N-ethylbenzylamino)morphinan]",24600
6,"CC(C)N(Cc1ccccc1)[C@@H]1CC[C@@]2(O)[C@H]3Cc4ccc(O)c5c4[C@@]2(CCN3CC2CC2)[C@H]1O5 [Compound 6, 17-cyclopropylmethyl-3,14β-dihydroxy-4,5α-epoxy-6β-(N-isopropylbenzylamino)morphinan]",1930
7,"CC(C)CN(Cc1ccccc1)[C@@H]1CC[C@@]2(O)[C@H]3Cc4ccc(O)c5c4[C@@]2(CCN3CC2CC2)[C@H]1O5 [Compound 7, 17-cyclopropylmethyl-3,14β-dihydroxy-4,5α-epoxy-6β-(N-isobutylbenzylamino)morphinan]",320
8,"CCCCN(Cc1ccccc1)[C@@H]1CC[C@@]2(O)[C@H]3Cc4ccc(O)c5c4[C@@]2(CCN3CC2CC2)[C@H]1O5 [Compound 8, 17-cyclopropylmethyl-3,14β-dihydroxy-4,5α-epoxy-6β-(N-butylbenzylamino)morphinan]",1200
9,"CCCCCN(Cc1ccccc1)[C@@H]1CC[C@@]2(O)[C@H]3Cc4ccc(O)c5c4[C@@]2(CCN3CC2CC2)[C@H]1O5 [Compound 9, 17-cyclopropylmethyl-3,14β-dihydroxy-4,5α-epoxy-6β-(N-pentylbenzylamino)morphinan]",290
10,"Oc1ccc2c3c1O[C@H]1[C@H](N(CCc4ccccc4)Cc4ccccc4)CC[C@@]4(O)[C@@H](C2)N(CC2CC2)CC[C@]314 [Compound 10, 17-cyclopropylmethyl-3,14β-dihydroxy-4,5α-epoxy-6β-(N-2-phenethylbenzylamino)morphinan]",280
11,"Oc1ccc2c3c1O[C@H]1[C@H](N(Cc4ccccc4)CC4CCCCC4)CC[C@@]4(O)[C@@H](C2)N(CC2CC2)CC[C@]314 [Compound 11, 17-cyclopropylmethyl-3,14β-dihydroxy-4,5α-epoxy-6β-[N-(cyclohexylmethyl)benzylamino]morphinan]",170
12,"Oc1ccc2c3c1O[C@H]1[C@H](N(CCCc4ccccc4)Cc4ccccc4)CC[C@@]4(O)[C@@H](C2)N(CC2CC2)CC[C@]314 [Compound 12, 17-cyclopropylmethyl-3,14β-dihydroxy-4,5α-epoxy-6β-(N-3-phenylpropylbenzylamino) morphinan]",130
13,"Oc1ccc2c3c1O[C@H]1[C@H](N(CCCCc4ccccc4)Cc4ccccc4)CC[C@@]4(O)[C@@H](C2)N(CC2CC2)CC[C@]314 [Compound 13, 17-cyclopropylmethyl-3,14β-dihydroxy-4,5α-epoxy-6β-(N-4-phenylbutylbenzylamino) morphinan]",210
14,"Oc1ccc2c3c1O[C@H]1[C@H](N(Cc4ccccc4)CC(c4ccccc4)c4ccccc4)CC[C@@]4(O)[C@@H](C2)N(CC2CC2)CC[C@]314 [Compound 14, 17-cyclopropylmethyl-3,14β-dihydroxy-4,5α-epoxy-6β-[N-(2,2-diphenylethyl)benzylamino)morphinan]",110
15,"CN(C(=O)C1CCCCC1)[C@H]1CC[C@@]2(O)[C@H]3Cc4ccc(O)c5c4[C@@]2(CCN3CC2CC2)[C@H]1O5 [Compound 31, 17-cyclopropylmethyl-3,14β-dihydroxy-4,5α-epoxy-6α-(N-methylcyclohexylcarboxamido)morphinan]",2530
16,"O=C(Cc1ccc(Cl)c(Cl)c1)N[C@H]1CC[C@@]2(O)[C@H]3Cc4ccc(O)c5c4[C@@]2(CCN3CC2CC2)[C@H]1O5 [Compound 36, 17-cyclopropylmethyl-3,14β-dihydroxy-4,5α-epoxy-6α-(3,4-dichlorophenylacetoamido) morphinan]",1010

row,Structure (SMILES),EC50 [nM]
1,"CC(C)CN(C(=O)CCCCCc1ccccc1)[C@H]1CC[C@@]2(O)[C@H]3Cc4ccc(O)c5c4[C@@]2(CCN3CC2CC2)[C@H]1O5 [Compound 37, 17-cyclopropylmethyl-3,14β-dihydroxy-4,5α-epoxy-6α-(N-isobutyl-6-phenylhexanoamido)morphinan]",60
2,"CC(C)CN(C(=O)Cc1ccc(Cl)c(Cl)c1)[C@@H]1CC[C@@]2(O)[C@H]3Cc4ccc(O)c5c4[C@@]2(CCN3CC2CC2)[C@H]1O5 [Compound 39, 17-cyclopropylmethyl-3,14β-dihydroxy-4,5α-epoxy-6β-(N-isobutyl-3,4-dichlorophenylacetoamido)morphinan]",390
3,"CN(C(=O)c1ccccc1)[C@@H]1CC[C@@]2(O)[C@H]3Cc4ccc(O)c5c4[C@@]2(CCN3CC2CC2)[C@H]1O5 [Compound 45, 17-cyclopropylmethyl-3,14β-dihydroxy-4,5α-epoxy-6β-(N-methylbenzamido)morphinan]",3720
4,"CN(C(=O)Cc1ccccc1)[C@@H]1CC[C@@]2(O)[C@H]3Cc4ccc(O)c5c4[C@@]2(CCN3CC2CC2)[C@H]1O5 [Compound 47, 17-cyclopropylmethyl-3,14β-dihydroxy-4,5α-epoxy-6β-(N-methylphenylacetoamido)morphinan]",17100
5,"CCCCOC(=O)N(C)[C@@H]1CC[C@@]2(O)[C@H]3Cc4ccc(O)c5c4[C@@]2(CCN3CC2CC2)[C@H]1O5 [Compound 48, 17-cyclopropylmethyl-3,14β-dihydroxy-4,5α-epoxy-6β-(N-methylbutyroxycarbamido)morphinan]",7040
6,"CCCCCC(=O)N(C)[C@@H]1CC[C@@]2(O)[C@H]3Cc4ccc(O)c5c4[C@@]2(CCN3CC2CC2)[C@H]1O5 [Compound 49, 17-cyclopropylmethyl-3,14β-dihydroxy-4,5α-epoxy-6β-(N-methylhexanoamido)morphinan]",29900
7,"COc1cccc(/C=C/C(=O)N(C)[C@@H]2CC[C@@]3(O)[C@H]4Cc5ccc(O)c6c5[C@@]3(CCN4CC3CC3)[C@H]2O6)c1 [Compound 50, 17-cyclopropylmethyl-3,14β-dihydroxy-4,5α-epoxy-6β-(N-methyl-3-methoxycinnamamido)morphinan]",3440
8,"CN(C(=O)CCC1CCCC1)[C@@H]1CC[C@@]2(O)[C@H]3Cc4ccc(O)c5c4[C@@]2(CCN3CC2CC2)[C@H]1O5 [Compound 51, 17-cyclopropylmethyl-3,14β-dihydroxy-4,5α-epoxy-6β-(N-methyl-3-cyclopentylpropioamido)morphinan]",13600
9,"CN(C(=O)c1ccc2ccccc2c1)[C@@H]1CC[C@@]2(O)[C@H]3Cc4ccc(O)c5c4[C@@]2(CCN3CC2CC2)[C@H]1O5 [Compound 52, 17-cyclopropylmethyl-3,14β-dihydroxy-4,5α-epoxy-6β-(N-methyl-2-naphthamido)morphinan]",1490
10,"CN(C(=O)/C=C/c1ccccc1C(F)(F)F)[C@@H]1CC[C@@]2(O)[C@H]3Cc4ccc(O)c5c4[C@@]2(CCN3CC2CC2)[C@H]1O5 [Compound 55, 17-cyclopropylmethyl-3,14β-dihydroxy-4,5α-epoxy-6β-(N-methyl-2-trifluoromethylcinnamamido)morphinan]",1730
11,"CN(C(=O)/C=C/c1ccc(C(F)(F)F)cc1)[C@@H]1CC[C@@]2(O)[C@H]3Cc4ccc(O)c5c4[C@@]2(CCN3CC2CC2)[C@H]1O5 [Compound 56, 17-cyclopropylmethyl-3,14β-dihydroxy-4,5α-epoxy-6β-(N-methyl-4-trifluoromethylcinnamamido)morphinan]",1080
12,"CC(C)CN(C(=O)CCCCCc1ccccc1)[C@@H]1CC[C@@]2(O)[C@H]3Cc4ccc(O)c5c4[C@@]2(CCN3CC2CC2)[C@H]1O5 [Compound 58, 17-cyclopropylmethyl-3,14β-dihydroxy-4,5α-epoxy-6β-(N-isobutyl-6-phenylhexanoamido)morphinan]",100
13,"CC(C)CN(C(=O)CCCCCCCc1ccccc1)[C@@H]1CC[C@@]2(O)[C@H]3Cc4ccc(O)c5c4[C@@]2(CCN3CC2CC2)[C@H]1O5 [Compound 59, 17-cyclopropylmethyl-3,14β-dihydroxy-4,5α-epoxy-6β-(N-isobutyl-8-phenyloctanoamido) morphinan]",480
14,"CC(C)CN(C(=O)CCCCCCCCCCc1ccccc1)[C@@H]1CC[C@@]2(O)[C@H]3Cc4ccc(O)c5c4[C@@]2(CCN3CC2CC2)[C@H]1O5 [Compound 60, 17-cyclopropylmethyl-3,14β-dihydroxy-4,5α-epoxy-6β-(N-isobutyl-11-phenylundecanoamido)morphinan]",90
15,"CC(C)CN(C(=O)CCCCC(=O)c1ccccc1)[C@@H]1CC[C@@]2(O)[C@H]3Cc4ccc(O)c5c4[C@@]2(CCN3CC2CC2)[C@H]1O5 [Compound 61, 17-cyclopropylmethyl-3,14β-dihydroxy-4,5α-epoxy-6β-(N-isobutyl-5-benzoylpentanoamido)morphinan]",2220
